Experimental data as given in patent US6806265B2, “Non-nucleoside reverse transcriptase inhibitors” (priority 2002, dated 2004).
Like-named read-outs stand apart in the source and are kept apart here.

What was measured:
[1] = system: HIV-1 double mutant K103N/Y181C; experiment: microbe, parasite or virus in culture; type: cell-based
[2] = molecular target: T1, HIV-1 RT double mutant K103N/Y181C (Human immunodeficiency virus type 1 group M subtype B, UniProt P03366, K702N/Y780C); experiment: biochemical
T1 construct: HIV-1 wild type reverse transcriptase as well as the clinically significant double mutant K103N/Y181C
Experimental: (§1) Utilizing the Reverse Transcriptase (RT) Assay described below, compounds were tested for their ability to inhibit the RNA-dependent DNA polymerase activity of HIV-1 RT. Certain specific compounds described in the Examples and in Tables 1-4, were so tested. The results of this testing appear in Table 5 as ranges of IC50 (nM) and EC50 (nM).
(§2) Reverse Transcriptase (RT) Assays

[3] = molecular target: T2, HIV-1 wild type reverse transcriptase (Human immunodeficiency virus type 1 group M subtype B, UniProt P03366); experiment: biochemical; conditions: wild type RT; read-out: IC50 WT RT
T2 construct: HIV-1 wild type reverse transcriptase
Experimental: as §1, §2

HIV-1 wild type = experiment: microbe, parasite or virus in culture; type: cell-based
[4] = Human immunodeficiency virus 1, read-out: EC50 K103N/Y181C (nM)
[5] = Human immunodeficiency virus 1, wild type, read-out: EC50 WT RT
[6] = double mutant K103N/Y181C, read-out: EC50 K103N/Y181C
[7] = RT double mutant K103N/Y181C, read-out: IC50 K103N/Y181C
[8] = wild type, read-out: EC50 WT RT
[9] = Human immunodeficiency virus 1, read-out: EC50 WT RT (nM)

In the case of `CCN1c2ncc(CCOc3ccc(-c4cocn4)cc3C)cc2C(=O)N(C)c2cccnc21` [Entry 1099, 11-Ethyl-5,11-dihydro-5-methyl-8-{2-[2-methyl-4-(4-oxazolyl)phenoxy]ethyl}-6H-dipyrido[3,2-b:2′,3′-e][1,4]diazepin-6-one], the EC50 [1, 4] is reported as less than 10 nM, the IC50 [2] is reported as less than 50 nM and the IC50 [3] is reported as less than 50 nM. It also gave an EC50 (HIV-1 wild type; [5]) of less than 10 nM.

Compound `CCN1c2ncc(CCOc3ccc(-c4cc(C(=O)O)on4)cc3C)cc2C(=O)N(C)c2cccnc21` [Entry 1041, 3-{4-[2-(11-Ethyl-6,11-dihydro-5-methyl-6-oxo-5H-dipyrido[3,2-b:2′,3′-e][1,4]diazepin-8-yl)ethoxy]-3-methylphenyl}-5-isoxazolecarboxylic acid] has an EC50 [1, 4] greater than 50 nM, an IC50 [2] of less than 50 nM and an IC50 [3] of less than 50 nM. It also gave an EC50 (HIV-1 wild type; [5]) greater than 50 nM.

`CCN1c2ncc(CCOc3ccc(-c4ccc(C(=O)O)cc4)cc3)cc2C(=O)N(C)c2cccnc21` [Entry 1001] was tested, and the EC50 [1, 6] was greater than 50 nM, the IC50 [2, 7] was 50 to 100 nM and the IC50 [3] was less than 50 nM. The EC50 (HIV-1 wild type; [8]) was less than 10 nM.

Compound `CCN1c2ncc(CCOc3ccc(-c4ccc(C(=O)O)cc4)cc3C)cc2C(=O)N(C)c2cccnc21` [Entry 1003] has an EC50 [1, 6] of less than 10 nM, an IC50 [2, 7] of less than 50 nM and an IC50 [3] of less than 50 nM. The EC50 (HIV-1 wild type; [8]) was less than 10 nM.

Compound `CCN1c2ncc(CCOc3ccc(-c4ccc(C(=O)O)cc4)c(C)c3)cc2C(=O)N(C)c2cccnc21` [Entry 1005] has an EC50 [1, 6] greater than 50 nM, an IC50 [2, 7] greater than 100 nM and an IC50 [3] of less than 50 nM. For the same compound, the EC50 (HIV-1 wild type; [8]) was 10 to 50 nM.

Compound `CCN1c2ncc(CCOc3ccc(NC(=O)CC4(C(=O)O)CCCC4)cc3C)cc2C(=O)N(C)c2cccnc21` [Entry 4007] has an EC50 [1, 4] of less than 10 nM, an IC50 [2] greater than 100 nM and an IC50 [3] of less than 50 nM. It also gave an EC50 (HIV-1 wild type; [5]) of less than 10 nM.

`CCN1c2ncc(CCOc3ccc(C(=O)Nc4ccccc4C(=O)O)cc3C)cc2C(=O)N(C)c2cccnc21` [Entry 3011] showed an EC50 [1, 4] greater than 50 nM, an IC50 [2] greater than 100 nM and an IC50 [3] of less than 50 nM. It also gave an EC50 (HIV-1 wild type; [9]) of 10 to 50 nM.

Compound `CCN1c2ncc(CCOc3ccc(-c4ccc(C(=O)O)cc4)c(Cl)c3)cc2C(=O)N(C)c2cccnc21` [Entry 1006] has an EC50 [1, 6] greater than 50 nM, an IC50 [2, 7] of 50 to 100 nM and an IC50 [3] of less than 50 nM. The EC50 (HIV-1 wild type; [8]) was 10 to 50 nM.

`CCN1c2ncc(CCOc3ccc(Nc4ccc(C(=O)O)cc4)cc3C)cc2C(=O)N(C)c2cccnc21` [Entry 3022, 4-{{4-[2-(11-Ethyl-6,11-dihydro-5-methyl-6-oxo-5H-dipyrido[3,2-b:2′,3′-e][1,4]diazepin-8-yl)ethoxy]-3-methylphenyl}amino}benzoic acid] showed an EC50 [1, 4] of 10 to 50 nM, an IC50 [2] of less than 50 nM and an IC50 [3] of less than 50 nM. The EC50 (HIV-1 wild type; [9]) was less than 10 nM.

Work on `CCN1c2ncc(CCOc3ccc(-c4cccc(CC(=O)O)c4)cc3C)cc2C(=O)N(C)c2cccnc21` [Entry 1015] yielded an EC50 [1, 6] of less than 10 nM, an IC50 [2, 7] of less than 50 nM and an IC50 [3] of less than 50 nM. The EC50 (HIV-1 wild type; [8]) was less than 10 nM.

Work on `CCN1c2ncc(CCOc3ccc(C(=O)Nc4cccc[n+]4[O-])cc3C)cc2C(=O)Nc2c(C)ccnc21` [Entry 3019] yielded an EC50 [1, 6] of less than 10 nM, an IC50 [2, 7] of 50 to 100 nM and an IC50 [3] of less than 50 nM. The EC50 (HIV-1 wild type; [8]) was less than 10 nM.

Compound `CCN1c2ncc(CCOc3ccc(-c4cc(C(=O)O)c(C)o4)cc3)cc2C(=O)N(C)c2cccnc21` [Entry 1047, 5-{4-[2-(11-Ethyl-6,11-dihydro-5-methyl-6-oxo-5H-dipyrido[3,2-b:2′,3′-e][1,4]diazepin-8-yl)ethoxy]phenyl}-2-methyl-3-furanecarboxylic acid] has an EC50 [1, 4] greater than 50 nM, an IC50 [2] greater than 100 nM and an IC50 [3] of less than 50 nM. The EC50 (HIV-1 wild type; [5]) was 10 to 50 nM.

In the case of `CCN1c2ncc(CCOc3ccc(-c4ccc(N)c(C(=O)O)c4)cc3C)cc2C(=O)N(C)c2cccnc21` [Entry 1034, 4-Amino-4′-[2-(11-ethyl-6,11-dihydro-5-methyl-6-oxo-5H-dipyrido[3,2-b:2′,3′-e][1,4]diazepin-8-yl)ethoxy]-3′-methyl-[1,1′-biphenyl]-3-carboxylic acid], the EC50 [1, 4] is reported as less than 10 nM, the IC50 [2] is reported as less than 50 nM and the IC50 [3] is reported as less than 50 nM. The EC50 (HIV-1 wild type; [9]) was less than 10 nM.

`CCN1c2ncc(CCOc3ccc(C(=O)NNC)cc3C)cc2C(=O)N(C)c2cccnc21` [Entry 4016] gave an EC50 [1, 4] of less than 10 nM, an IC50 [2] of less than 50 nM and an IC50 [3] of less than 50 nM. The EC50 (HIV-1 wild type; [5]) was less than 10 nM.

`CCN1c2ncc(CCOc3ccc(-c4cn(C)cn4)cc3C)cc2C(=O)N(C)c2cccnc21` [Entry 1095, 11-Ethyl-5,11-dihydro-5-methyl-8-{2-[2-methyl-4-(1-methyl-1H-imidazol-4-yl)phenoxy]ethyl}-6H-dipyrido[3,2-b:2′,3′-e][1,4]diazepin-6-one] gave an EC50 [1, 4] of less than 10 nM, an IC50 [2] of less than 50 nM and an IC50 [3] of less than 50 nM. The EC50 (HIV-1 wild type; [5]) was less than 10 nM.

`CCN1c2ncc(CCOc3ccc(NC(=O)CC(C)(C)C(=O)O)cc3C)cc2C(=O)N(C)c2cccnc21` [Entry 4008] gave an EC50 [1, 4] of 10 to 50 nM, an IC50 [2] greater than 100 nM and an IC50 [3] of less than 50 nM. It also gave an EC50 (HIV-1 wild type; [5]) of less than 10 nM.

In the case of `CCN1c2ncc(CCOc3ccc(C(=O)Nc4ccc[n+]([O-])c4)cc3C)cc2C(=O)Nc2c(C)ccnc21` [Entry 3020], the EC50 [1, 6] is reported as less than 10 nM, the IC50 [2, 7] is reported as less than 50 nM and the IC50 [3] is reported as less than 50 nM. The EC50 (HIV-1 wild type; [8]) was less than 10 nM.

Work on `CCN1c2ncc(CCOc3ccc(NC(=O)C4CC4C(=O)O)cc3C)cc2C(=O)N(C)c2cccnc21` (stereo not drawn) [Entry 4009] yielded an EC50 [1, 4] greater than 50 nM, an IC50 [2] greater than 100 nM and an IC50 [3] of less than 50 nM. It also gave an EC50 (HIV-1 wild type; [5]) of less than 10 nM.

Work on `CCN1c2ncc(CCOc3ccc(C(=O)Nc4nc(CC(=O)O)cs4)cc3C)cc2C(=O)N(C)c2cccnc21` [Entry 3007] yielded an EC50 [1, 4] greater than 50 nM, an IC50 [2] of less than 50 nM and an IC50 [3] of less than 50 nM. For the same compound, the EC50 (HIV-1 wild type; [5]) was 10 to 50 nM.

For `CCN1c2ncc(CCOc3ccc(-c4ccc(C(=O)O)o4)cc3C)cc2C(=O)N(C)c2cccnc21` [Entry 1046, 5-{4-[2-(11-Ethyl-6,11-dihydro-5-methyl-6-oxo-5H-dipyrido[3,2-b:2′,3′-e][1,4]diazepin-8-yl)ethoxy]-3-methylphenyl}-2-furanecarboxylic acid], the EC50 [1, 4] was greater than 50 nM, the IC50 [2] was greater than 100 nM and the IC50 [3] was less than 50 nM. It also gave an EC50 (HIV-1 wild type; [5]) of less than 10 nM.

Work on `CCN1c2ncc(CCOc3ccc(NC(=O)c4ccccc4C(=O)O)cc3C)cc2C(=O)N(C)c2cccnc21` [Entry 3033] yielded an EC50 [1, 4] of 10 to 50 nM, an IC50 [2] greater than 100 nM and an IC50 [3] of less than 50 nM. For the same compound, the EC50 (HIV-1 wild type; [9]) was less than 10 nM.
